Data: EPA's ToxValDB 9.5

System: Rattus norvegicus
Conditions: oral
[1] = subchronic, gavage, M, Sprague-Dawley, Clinical Observation: Salivation Locomotor activity decrease, BradypneaIncomplete eyelid opening + Body Weight Changes: decrease + Blood …
[2] = chronic, duration: 92 days, gavage, M/F, Fischer 344, Histopathology: Liver-Proliferation of smooth endoplasmic reticulum, parenchymal cell (Electron-microscopic examination) Liver-Decrease in …
[3] = short-term, duration: 28 days, gavage, F, Sprague-Dawley, Clinical Observation: Salivation80 + Necropsy: Stomach-Thickening, limiting ridge Forestomach-Thickening, mucosa, focal + Histopathology: …
[4] = short-term, duration: 28 days, gavage, M, Sprague-Dawley, Clinical Observation: Salivation80 + Necropsy: Stomach-Thickening, limiting ridge Forestomach-Thickening, mucosa, focal + Histopathology: …
[5] = subchronic, gavage, M, Sprague-Dawley, Clinical Observation: Salivation PtosisReddish urine + Functional Observational Battery: Salivation Coordination of movement, abnormal …

N#Cc1cccc([N+](=O)[O-])c1 [Benzonitrile, 3-nitro-]
NOEL (short-term, duration: 28 days, gavage, M/F, Deaths + Clinical Observation: Paralytic gait Piloerection Reddish tears + Body Weight Changes: Body weight gain decrease + Hematology: WBC…): < 0.5 mg/kg-day

CCC(C)=NO [2-Butanone oxime]
NOEL (subchronic, drinking water, F, Fischer 344, Clinical Observation: Dark eyes Pale ears + Body Weight Changes: decrease + Water Consumption: decrease + Hematology: Hct decrease, Hgb …): < 30 mg/kg-day
NOEL (subchronic, drinking water, M/F, Fischer 344, Clinical Observation: Dark eyes Pale ears + Body Weight Changes: decrease + Water Consumption: decrease + Hematology: Hct decrease, Hgb …): < 47.4 mg/kg-day

CCCCCCC[CH2][Sn]([S]CC(=O)OCCCCCC(C)C)([S]CC(=O)OCCCCCC(C)C)[S]CC(=O)OCCCCCC(C)C
NOAEL (subchronic, duration: 13 weeks, diet, M, CIVO, Wistar-derived, Relative Organ Weight: Kidney increase, Liver decrease + Histopathology: Kidney-Increased granularity, tubular epithelial cells): 28.8 mg/kg-day
NOAEL (subchronic, duration: 13 weeks, drinking water, M/F, CIVO, Wistar-derived, Urinalysis: Epithelial cell increase, Crystals increase + Hematology: HGB decrease + Blood Chemistry: BUN increase + Relative Organ Weight: …): < 45.6 mg/kg-day

Nc1nn[nH]n1 [Tetrazol-5-ylamine]
NOEL (subchronic, gavage, M, Sprague-Dawley, Blood Chemistry: BUN increase): 200 mg/kg-day

Nc1ccc([N+](=O)[O-])cc1O [2-Amino-5-nitrophenol]
NOEL (subchronic, duration: 13 weeks, gavage, M/F, Fischer 344, Deaths + Body Weight Changes: decrease + Absolute Organ Weight: Liver increase + Relative Organ Weight: Liver increase + Histopathology: …): < 100 mg/kg-day

CCCCCCCCCCCCc1ccc(S(=O)(=O)[O-])cc1.COc1ccc(C[N+](C)(C)c2ccccc2)cc1
NOEL (short-term, duration: 28 days, gavage, M/F, Clinical Observation: Salivation + Urinalysis: Occult blood + Blood Chemistry: GPT increase, T-CHO increase, K increase, GOT increase, TG …): 25 mg/kg-day

OCC1CCCO1 (stereo not drawn) [Tetrahydrofurfuryl alcohol]
NOEL (short-term, duration: 28 days, gavage, M/F, Sprague-Dawley, Clinical Observation: Locomotor activity increase, Locomotor activity decrease, Prone position + Functional Observational Battery: Grip …): 40 mg/kg-day

CO[Si](CCCOCC1CO1)(OC)OC (stereo not drawn) [Trimethoxy[3-(oxiran-2-ylmethoxy)propyl]silane]
NOAEL (short-term, duration: 28 days, gavage, Sprague-Dawley, Deaths: None (there were dead animals due to intubation error)): > 1000 mg/kg-day

CN1CCNCC1 [1-Methylpiperazine]
NOEL (subchronic, gavage, M, Sprague-Dawley, Body Weight Changes: Gain decrease(trend)Gain rate decrease + Hematology: WBC decrease(trend)RET decrease, Eosinophil ratio decrease + Blood…): 80 mg/kg-day

CCCCC(CC)COC(=O)CS (stereo not drawn) [2-Ethylhexyl thioglycolate]
NOAEL (short-term, duration: 28 days, diet, M, Fischer 344, Hematology: WBC decrease Lymph decrease + Blood Chemistry: AST increase): 0.2%

Clc1ccc(OCOCC#CI)cc1 [1-Chloro-4-(((3-iodo-2-propynyl)oxy)methoxy)benzene]
NOEL (subchronic, gavage, M, Sprague-Dawley, Clinical Observation: Salivation Loose stool + Body Weight Changes: decreaseor decrease(trend) + Food Consumption: decrease + Hematology: …): 8 mg/kg-day

CCC[N+](=O)[O-] [1-Nitropropane]
NOAEL (short-term, duration: 28 days, gavage, M/F, Sprague-Dawley, Deaths + Clinical Observation: Salivation Red/brown staining around the mouth Hunched posture + Body Weight Changes: Body weight gain …): 30 mg/kg-day

O=C([O-])[C@H](O)[C@@H](O)[C@H](O)[C@H](O)CO.[Na+] [Sodium D-gluconate]
NOAEL (short-term, duration: 28 days, diet, CD(SD)): 4100 mg/kg-day
NOAEL (short-term, duration: 28 days, diet, Sprague-Dawley): 5%
NOAEL (short-term, duration: 28 days, gavage, M, CD(SD), Histopathology: Stomach: Thickening of the limiting ridge): 1000 mg/kg-day
NOAEL (short-term, duration: 28 days, gavage, M, CD(SD), Histopathology: Stomach: Thickening, limiting ridge): 1000 mg/kg-day

Cc1cc(Cc2cc(C)cc(C(C)(C)C)c2O)c(O)c(C(C)(C)C)c1 [2,2'-Methylenebis(4-methyl-6-tert-butylphenol)]
NOEL (subchronic, diet, F, Wistar, Deaths: Survival rate.6 (45% % ).0 (20% % ) + Body Weight Changes: decrease + Food Consumption: decrease + Hematology: Hgb decrease RBC …): < 104 mg/kg-day
NOEL (subchronic, diet, M/F, Wistar, Deaths: Survival rate.6 (45% % ).0 (20% % ) + Body Weight Changes: decrease + Food Consumption: decrease + Hematology: Hgb decrease RBC …): < 0.12%
NOEL (subchronic, diet, M/F, Wistar, Hematology: Hgb increasemg/kg/ + Blood Chemistry: Cho increasemg/kg/ + Absolute Organ Weight: Liver increasemg/kg/ + Relative Organ …): 1.92 mg/kg-day

COCc1ccc(COC)cc1 [1,4-Bis(methoxymethyl)benzene]
NOAEL [1]: 50 mg/kg-day
NOEL [1]: 50 mg/kg-day

CCCCCCCCCCCCCCCCCC[N+](C)(C)CCCCCCCCCCCCCCCCCC.[Cl-] [Dimethyldioctadecylammonium chloride]
NOAEL (short-term, duration: 28 days, gavage, M/F, Wistar, Body Weight Changes: Weight gain decrease + Hematology: WBC increase + Histopathology: Adrenal: Necrosis, cortex Adrenal: Granulocytes …): 100 mg/kg-day

O=Cc1cccc(Cl)c1Cl [2,3-Dichlorobenzaldehyde]
NOEL (short-term, duration: 28 days, gavage, M/F, Clinical Observation: Salivation + Body Weight Changes: Body weight gain decrease + Blood Chemistry: GPT increase, A/G increase + Organ …): < 20 mg/kg-day

CC(O)CNCC(C)O (stereo not drawn) [Diisopropanolamine]
NOAEL (subchronic, duration: 90 days, drinking water, F, Fischer 344, Water Consumption: decrease + Urinalysis: Volume decrease, Specific gravity increase + Absolute Organ Weight: Kidney increase500 + Relative…): 500 mg/kg-day
NOAEL (subchronic, duration: 90 days, drinking water, M/F, Fischer 344, Water Consumption: decrease + Urinalysis: SG increase, Volume decrease + Absolute Organ Weight: Kidney increase + Relative Organ Weight: …): 100 mg/kg-day
NOAEL (subchronic, duration: 90 days, drinking water, M, Fischer 344, Water Consumption: decrease + Urinalysis: Volume decrease, Specific gravity increase + Absolute Organ Weight: Kidney increase500 + Relative…): 100 mg/kg-day

C=CN1CCCC1=O [Vinylpyrrolidone]
NOAEL (subchronic, duration: 90 days, drinking water, M/F, Wistar, Water Consumption: decrease + Blood Chemistry: TP decrease, Glob decrease, Alb decrease + Absolute Organ Weight: Kidney increase): 4.56 mg/kg-day
NOAEL (subchronic, duration: 90 days, gavage, M/F, Wistar, Food Consumption: decrease + Water Consumption: increase + Hematology: PLT increase + Absolute Organ Weight: Liver increase + Histopathology…): 60 mg/kg-day

CC(=O)Nc1ccccc1 [N-Acetylaminobenzene]
NOAEL (subchronic, duration: 30 days, gavage, M, Sprague-Dawley, Clinical Observation: Decreased locomotor activity Reddish Tear SalivationCyanosis + Hematology: HGB decrease, HCT decrease, MCHC decrease…): < 22 mg/kg-day

[O-][n+]1ccccc1[S-].[O-][n+]1ccccc1[S-].[Zn+2] [Zinc pyrithione]
NOEL (subchronic, gavage, Sprague-Dawley): 1 mg/kg-day

CN(C)C(=O)c1nc(CNC(=O)CN)n(-c2ccc(Cl)cc2C(=O)c2ccccc2Cl)n1.Cl [Rilmazafone hydrochloride]
NOAEL [2]: 25 mg/kg-day
NOEL [2]: 1 mg/kg-day

C=Cc1ccncc1 [4-Vinylpyridine]
LOEL [3]: 80 mg/kg-day
NOEL [3]: 40 mg/kg-day
LOEL [4]: 40 mg/kg-day
NOEL [4]: 20 mg/kg-day

CC(C)(C)CC(C)(C)c1cc(O)c(C(C)(C)CC(C)(C)C)cc1O [2,5-Bis(1,1,3,3-tetramethylbutyl)hydroquinone]
NOEL (subchronic, gavage, M, Sprague-Dawley, Clinical Observation: Soft stool Soiled perineal region + Body Weight Changes: Gain decrease + Food Consumption: increase + Hematology: Hgb …): 10 mg/kg-day

COc1cc(N=Nc2ccc3cc(S(=O)(=O)[O-])c(N=Nc4cc(OC)c(N=Nc5ccc(N)cc5S(=O)(=O)[O-])cc4OC)c(O)c3c2)c(OC)cc1N.[Na+].[Na+]
NOEL (short-term, duration: 28 days, gavage, M/F, Body Weight Changes: Body weight gain decrease + Food Consumption: decrease + Hematology: GOT increase, GPT increase, TG decrease + Organ …): 2 mg/kg-day

CC(=O)CC(=O)Nc1ccc(-c2ccc(NC(=O)CC(C)=O)c(C)c2)cc1C
NOEL (short-term, duration: 28 days, gavage, M/F, Crl:CD(SD), Body Weight Changes: decrease + Food Consumption: decrease + Water Consumption: decrease + Urinalysis: Volume decrease + Blood Chemistry: …): 8 mg/kg-day

ClCCc1ccccc1 [1-Chloro-2-phenylethane]
NOEL (short-term, duration: 28 days, gavage, M/F, Sprague-Dawley, Food Consumption: decrease + Urinalysis: Volume increase, Prot decrease + Hematology: RBC increase, MCV decrease, MCH decrease + Absolute …): 60 mg/kg-day

CCOC(=O)CC#N [Ethyl cyanoacetate]
NOAEL (subchronic, duration: 90 days, gavage, M/F, Wistar, Urinalysis: Volume increase + Hematology: WBC decrease, RBC decrease, HGB decrease, HTC decrease + Histopathology: Liver: Inflammation, …): 100 mg/kg-day

CCCC=NO [Butyraldehyde oxime]
NOEL (subchronic, gavage, M/F, Fischer 344, Deaths + Body Weight Changes: decrease + Urinalysis: Thiocyanate (I1/4mol/24 hr) increase, Thiocyanate/creatinine ratio increase, Creatinine…): < 25 mg/kg-day

O=S(=O)([O-])c1cccc2c(S(=O)(=O)[O-])cccc12.[Na+].[Na+] [1,5-Naphthalenedisulfonic acid, disodium salt]
NOEL (subchronic, gavage, M, Sprague-Dawley, Clinical Observation: Soft stool Diarrhea + Necropsy: Stomach/Forestomach-Elevation of limiting ridge Cecum-Enlargement + Histopathology: …): 40 mg/kg-day

COc1cc(NC(=O)CC(C)=O)c(OC)cc1Cl [4'-Chloro-2',5'-dimethoxyacetoacetanilide]
NOAEL [5]: 40 mg/kg-day
NOEL [5]: 8 mg/kg-day

OC[C@@H](O)[C@@H](O[C@@H]1O[C@H](CO)[C@H](O)[C@H](O)[C@H]1O)[C@H](O)[C@@H](O)CO [Lactitol]
NOEL (subchronic, gavage, M/F, SLC:SD, Clinical Observation: Loose stool, Diarrhea Soiled fur, Salivation Abdominal distention + Body Weight Changes: decrease + Food Consumption: …): < 625 mg/kg-day

C/C=C/C=C/C=O [(2E,4E)-2,4-Hexadienal]
NOEL (chronic, duration: 14 weeks, gavage, M/F, Fischer 344, Clinical Observation: Hypersalivation + Body Weight Changes: decrease + Histopathology: Stomach/forestomach-Epithelium hyperplasia Stomach/…): 15 mg/kg-day

CC1(C)S[C@@H]2[C@H](NC(=O)COc3ccccc3)C(=O)N2[C@H]1C(=O)[O-].[K+] [Penicillin VK]
NOEL (subchronic, duration: 13 weeks, gavage, M/F, Fischer 344, Clinical Observation: Diarrhea + Body Weight Changes: decrease + Histopathology: Stomach/glandular-Mucous cell metaplasia): 370 mg/kg-day

Cc1ccc(S(=O)(=O)Cl)cc1 [p-Toluenesulfonyl chloride]
NOAEL (subchronic, duration: 51 days, gavage, M, Sprague-Dawley, Clinical Observation: Soft stool Staining around anorectal region Staining around mouth Staining around nose(blood like) Loss of hair around…): < 150 mg/kg-day

N#CN=C(N)N [Cyanoguanidine]
NOAEL (subchronic, duration: 44 days, gavage, M, CD(SD)): 1000 mg/kg-day

CC(=O)OC1CC(C)OC(C)O1 (stereo not drawn) [Dimethoxane]
NOEL (subchronic, duration: 13 weeks, gavage, M/F, Fischer 344, Body Weight Changes: decrease + Relative Organ Weight: Kidney increase, Brain increase, Lung increase + Histopathology: Stomach/forestomach…): 31 mg/kg-day
